“Also recorded” adds a separate entry of the source. Bridge positions count the residues as written; N and C are the ends. Ends that are not written are not given here. Peptide text beside a SMILES is read from it.
How the values were obtained:
[1] = tested on: HIV-1 CH077 (clade B transmitted-founder); conditions: TZM-bl cells, clade B CH077 TF HIV-1
Experimental: (§1) Figure 3 Size optimization of VIR-148. (A) TZM-bl reporter cells were incubated with increasing concentrations of VIR-148, VIR-102, or the indicated internally truncated itVIRIP derivatives. Cells were subsequently infected with HIV-1 NL4-3, and beta-galactosidase activity was determined 3 days after infection. (B) Hemolytic effect of indicated compounds on human erythrocytes. Each tile represents the area under the curve (AUC) for hemolytic activity. Full hemolysis is represented by a Triton-X control. (C) Amino acid alignment of the FP regions (red) of HIV-1 CH042, CH077, SIVmac239 and HIV-2 ROD10. (D) TZM-bl cells were incubated with increasing concentrations of VIR-148 or soVIRIP and subsequently infected with the HIV-1 CH042 or CH077, SIVmac239 or HIV-2 ROD10. […] The contribution of each amino acid to the binding interaction is indicated by color saturation. (F) Time-resolved ReaxFF-based molecular dynamics simulation of the interaction between soVIRIP and the HIV-1 FP. The trajectories are shown for VIR-148 (blue) and soVIRIP (orange). (G) Correlation between the free energy contribution of each amino acid of soVIRIP with the corresponding amino acid in VIR-148, based on ReaxFF simulations.
(§2) To determine infectious virus yield, 10,000 TZM-bl reporter cells/well were seeded in 96-well plates and infected with cell culture supernatants, under reduced 1% FCS conditions, in triplicates on the following day. Three days p.i., cells were lysed and β-galactosidase reporter gene expression was determined using the GalScreen Kit (Applied Bioscience) according to the manufacturer’s instructions with an Orion microplate luminometer (Berthold).
(§3) 10,000 TZM-bl reporter cells were seeded in 96-well plates in 100 μL of supplemented DMEM. The following day, the medium was changed to reduced 1% FCS-supplemented DMEM, and serially diluted peptide was added to the cells. The cells were subsequently infected with 10 μL of infectivity-normalized virus stocks. At 3 days postinfection, the supernatant was removed, and β-galactosidase activity was measured as previously described.

[2] = tested on: HIV-1 CH042 (clade C transmitted-founder); conditions: TZM-bl cells, clade C CH042 TF HIV-1
Experimental: as §1, §2, §3

zebrafish embryos = experiment: Zebrafish embryo toxicity; conditions: for toxicity in zebrafish embryos: embryos exposed from 24 hpf for 24 h, 60 embryos per group, two experiments, NRC-03 3 μM, abamectin 3.125 μM
Experimental: For in vivo studies, wild-type zebrafish embryos (Danio rerio) were dechorionated at 24 h post fertilization (hpf) using digestion with 1 mg/mL Pronase (Sigma) in E3 medium ([…]). In a 96-well plate, 3 embryos per well were exposed for 24 h to 100 μL of E3 containing VIRIP peptides at the concentrations indicated in the figures. Two independent assays were performed, each with 10 × 3 embryos. The peptide solvent (DMSO), diluted in E3, was used as negative control at the same amount as introduced by the peptide stock. […] Abamectin at a concentration of 3.125 μM was used as positive control for neurotoxicity.[49] At 48 hpf (after 24 h of incubation) embryos were scored in a stereomicroscope for signs of cytotoxicity (lysis and/or necrosis), developmental toxicity (delay and/or malformations) or cardiotoxicity (heart edema and/or reduced or absent circulation). Each embryo was also touched with a needle and reduced or absent touch response (escape movements) was evaluated as signs of neurotoxicity if and only if no signs of acute toxicity were present in the same embryo. Embryos were categorized within each of these toxicity categories into several classes of severity.[35]

HIV-2 ROD10 = experiment: TZM-bl infection inhibition, HIV-2 ROD10; type: cell-based; conditions: TZM-bl cells
Experimental: (§4) Figure 3 Size optimization of VIR-148. (A) TZM-bl reporter cells were incubated with increasing concentrations of VIR-148, VIR-102, or the indicated internally truncated itVIRIP derivatives. Cells were subsequently infected with HIV-1 NL4-3, and beta-galactosidase activity was determined 3 days after infection. (B) Hemolytic effect of indicated compounds on human erythrocytes. Each tile represents the area under the curve (AUC) for hemolytic activity. Full hemolysis is represented by a Triton-X control. (C) Amino acid alignment of the FP regions (red) of HIV-1 CH042, CH077, SIVmac239 and HIV-2 ROD10. […]
as §2
(§5) 10,000 TZM-bl reporter cells were seeded in 96-well plates in 100 μL of supplemented DMEM. […] At 3 days postinfection, the supernatant was removed, and β-galactosidase activity was measured as previously described.

HIV-1 NL4-3 = tested on: HIV-1 NL4-3
Source text: To further define critical residues and to assess whether the loop structure is required for antiviral activity, we generated short peptides of six, seven or ten amino acids corresponding to the C- or N-termini of VIR-148, respectively. To determine their antiviral activity, we pretreated TZM-bl reporter cells with various concentrations of individual or mixed peptides and subsequently exposed them to the CXCR4-tropic HIV-1 NL4–3 strain. TZM-bl reporter cells are highly susceptible to HIV-1 infection and contain the β-galactosidase reporter gene under the control of the HIV-1 long terminal repeat.[34] Three days later, infection was quantified by β-galactosidase assay.
as §2, §3

SIVmac239 = experiment: TZM-bl infection inhibition, SIVmac239; type: cell-based, SIVmac; conditions: TZM-bl cells
Experimental: as §4, §2, §5

Row | Molecule | IC50 [1] [nM] | IC50 [2] [nM] | toxicity in zebrafish embryos (zebrafish embryos) | nontoxic concentration relative to IC50 against primary HIV-1 strains (zebrafish embryos; zebrafish embryos) | activity against HIV-2 ROD10 (HIV-2 ROD10) | IC50 (HIV-1 NL4-3; NL4-3) [nM] | antiviral activity (in words) (HIV-1 NL4-3; TZM-bl reporter cells, HIV-1 NL4-3, β-galactosidase 3 days postinfection) | higher antiviral activity compared to the original VIRIP (HIV-1 NL4-3; ratio of IC50 values) | activity against SIVmac239 (SIVmac239)
1 | CC[C@H](C)[C@H](NC(=O)[C@H](C)NC(=O)[C@H](CCC(=O)O)NC(=O)[C@@H](N)CC(C)C)C(=O)N1CCC[C@H]1C(=O)N[C@H]1CSSC[C@@H](C(=O)N[C@H](C(=O)N[C@@H](C)C(=O)N[C@@H](Cc2ccccc2)C(=O)N[C@@H](CC(N)=O)C(=O)N[C@@H](CCCCN)C(=O)N2CCC[C@H]2C(=O)N[C@@H](Cc2ccccc2)C(=O)N[C@H](C(=O)N[C@@H](Cc2ccccc2)C(=O)O)C(C)C)C(C)C)NC(=O)[C@@H]2CCCN2C(=O)[C@@H]2CCCN2C(=O)[C@H]([C@@H](C)CC)NC(=O)[C@H](CO)NC1=O [VIR-148, reference compound] (H-LEAIPCSIPPCVAFNKPFVF-OH; disulfide 6-11) | 39 | 37 | – | – | – | – | – | – | –
2 | abamectin [reference compound] | – | – | exhibited the expected toxicities | – | – | – | – | – | –
3 | GRRKRKWLRRIGKGVKIIGG AALDHL-NH2 [NRC-03, reference compound] | – | – | exhibited the expected toxicities | – | – | – | – | – | –
4 | LEAIPVAFVF [soVIRIP] | 39 | 37 | did not display significant toxic effects; also recorded: nontoxic | about 2,500 fold | inactive | 120 | maintained full antiviral activity | more than 100 fold | inactive

Source: paper PMC12010322, “ReaxFF-Guided Optimization of VIRIP-Based HIV-1 Entry Inhibitors” (The Journal of Physical Chemistry. B, 2025)
